Test results from article PMC6407917, “Identification of GSK3186899/DDD853651 as a Preclinical Development Candidate for the Treatment of Visceral Leishmaniasis” (Journal of Medicinal Chemistry, 2018).

Experiments:
Test in all cases: biochemical
Parameters in all cases: species or system HEK293/K-562/placenta mixed human extract; Kinobeads chemoproteomic competition binding, quantified by TMT LC-MS/MS, dose response up to 20 uM
PRKCQ = PRKCQ (Homo sapiens, UniProt Q04759)
AXL = AXL (Homo sapiens, UniProt P30530)
WNK4 = WNK4 (Homo sapiens, UniProt Q96J92)
IKBKE = IKBKE (Homo sapiens, UniProt Q14164)
IRAK3 = IRAK3 (Homo sapiens, UniProt Q9Y616)
RPS6KA3 = RPS6KA3 (Homo sapiens, UniProt P51812)
RPS6KA3, sequence (P51812 whole entry): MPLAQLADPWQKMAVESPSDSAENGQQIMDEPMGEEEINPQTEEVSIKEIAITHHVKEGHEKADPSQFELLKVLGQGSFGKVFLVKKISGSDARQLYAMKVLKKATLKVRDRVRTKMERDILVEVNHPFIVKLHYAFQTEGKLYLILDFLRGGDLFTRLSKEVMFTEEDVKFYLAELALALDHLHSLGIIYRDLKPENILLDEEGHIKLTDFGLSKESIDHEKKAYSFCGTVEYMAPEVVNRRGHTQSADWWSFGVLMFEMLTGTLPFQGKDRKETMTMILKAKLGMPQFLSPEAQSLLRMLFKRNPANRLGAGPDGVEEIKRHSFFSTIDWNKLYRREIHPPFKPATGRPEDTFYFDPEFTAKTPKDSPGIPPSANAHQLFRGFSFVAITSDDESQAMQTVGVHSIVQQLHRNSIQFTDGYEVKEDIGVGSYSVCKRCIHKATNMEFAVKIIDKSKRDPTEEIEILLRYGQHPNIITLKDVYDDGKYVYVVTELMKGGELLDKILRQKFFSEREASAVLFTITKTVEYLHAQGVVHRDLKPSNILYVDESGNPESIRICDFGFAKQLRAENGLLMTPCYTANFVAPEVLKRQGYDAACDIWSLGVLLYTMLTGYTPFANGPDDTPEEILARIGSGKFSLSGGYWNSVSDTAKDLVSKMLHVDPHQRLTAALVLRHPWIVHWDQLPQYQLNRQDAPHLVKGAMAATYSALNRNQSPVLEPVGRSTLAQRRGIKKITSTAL

DDR2 = DDR2 (Homo sapiens, UniProt Q16832)
PRKG1 = PRKG1 (Homo sapiens, UniProt Q13976)
PDPK1 = PDPK1 (Homo sapiens, UniProt O15530)
PRKD2 = PRKD2 (Homo sapiens, UniProt Q9BZL6)
MAP2K6 = MAP2K6 (Homo sapiens, UniProt P52564)
MAP2K6, sequence (P52564 whole entry): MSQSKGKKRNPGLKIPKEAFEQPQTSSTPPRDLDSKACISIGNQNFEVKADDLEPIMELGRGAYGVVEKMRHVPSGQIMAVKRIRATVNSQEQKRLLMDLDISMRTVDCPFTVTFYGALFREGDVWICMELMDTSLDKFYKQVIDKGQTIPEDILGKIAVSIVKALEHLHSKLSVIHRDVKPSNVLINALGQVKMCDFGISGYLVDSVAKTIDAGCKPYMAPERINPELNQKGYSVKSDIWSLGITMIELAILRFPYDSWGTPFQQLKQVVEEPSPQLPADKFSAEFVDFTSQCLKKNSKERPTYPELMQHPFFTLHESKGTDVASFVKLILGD

MAPK3 = MAPK3 (Homo sapiens, UniProt P27361)
MARK3 = MARK3 (Homo sapiens, UniProt P27448)
MARK3, sequence (P27448 whole entry): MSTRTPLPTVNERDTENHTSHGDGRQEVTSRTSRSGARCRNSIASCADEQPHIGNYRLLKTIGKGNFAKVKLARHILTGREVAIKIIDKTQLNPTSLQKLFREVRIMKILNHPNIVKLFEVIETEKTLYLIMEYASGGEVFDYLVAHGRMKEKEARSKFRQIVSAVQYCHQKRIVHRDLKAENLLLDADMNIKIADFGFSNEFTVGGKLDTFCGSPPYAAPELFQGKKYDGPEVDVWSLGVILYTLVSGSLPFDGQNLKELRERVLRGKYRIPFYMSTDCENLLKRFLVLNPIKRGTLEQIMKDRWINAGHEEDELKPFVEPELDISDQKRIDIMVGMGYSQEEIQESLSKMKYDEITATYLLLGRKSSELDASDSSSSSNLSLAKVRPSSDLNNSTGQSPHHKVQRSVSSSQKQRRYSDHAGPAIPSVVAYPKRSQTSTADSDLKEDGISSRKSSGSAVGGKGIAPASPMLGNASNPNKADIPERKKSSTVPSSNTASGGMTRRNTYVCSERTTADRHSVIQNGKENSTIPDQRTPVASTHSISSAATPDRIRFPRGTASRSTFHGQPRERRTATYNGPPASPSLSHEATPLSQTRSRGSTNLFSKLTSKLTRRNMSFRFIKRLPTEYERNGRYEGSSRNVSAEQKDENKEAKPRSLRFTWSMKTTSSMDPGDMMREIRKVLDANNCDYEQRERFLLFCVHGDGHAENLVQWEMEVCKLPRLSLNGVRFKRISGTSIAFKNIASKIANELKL

CDC42BPA = CDC42BPA (Homo sapiens, UniProt Q5VT25)
MAP3K3 = MAP3K3 (Homo sapiens, UniProt Q99759)
MAP3K3, sequence (Q99759 whole entry): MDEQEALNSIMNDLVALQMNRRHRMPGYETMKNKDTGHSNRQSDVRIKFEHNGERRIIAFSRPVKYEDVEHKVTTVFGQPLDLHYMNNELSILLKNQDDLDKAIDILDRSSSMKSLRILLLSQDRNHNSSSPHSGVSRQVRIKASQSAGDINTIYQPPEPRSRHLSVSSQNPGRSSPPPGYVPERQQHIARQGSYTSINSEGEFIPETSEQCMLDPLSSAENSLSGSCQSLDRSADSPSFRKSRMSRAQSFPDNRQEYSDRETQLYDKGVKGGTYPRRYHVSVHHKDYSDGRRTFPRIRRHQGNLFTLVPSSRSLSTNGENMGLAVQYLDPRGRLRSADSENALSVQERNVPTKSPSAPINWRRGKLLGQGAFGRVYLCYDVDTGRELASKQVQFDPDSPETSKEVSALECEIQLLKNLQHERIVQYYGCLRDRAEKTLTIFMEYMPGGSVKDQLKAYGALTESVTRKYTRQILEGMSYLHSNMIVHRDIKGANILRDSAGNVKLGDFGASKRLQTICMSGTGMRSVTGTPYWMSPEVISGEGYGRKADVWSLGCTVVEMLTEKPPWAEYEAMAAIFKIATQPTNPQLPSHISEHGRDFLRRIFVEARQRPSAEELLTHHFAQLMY

ADCK1 = ADCK1 (Homo sapiens, UniProt Q86TW2)
CAMK2B = CAMK2B (Homo sapiens, UniProt Q13554)
CAMK2B, sequence (Q13554 whole entry): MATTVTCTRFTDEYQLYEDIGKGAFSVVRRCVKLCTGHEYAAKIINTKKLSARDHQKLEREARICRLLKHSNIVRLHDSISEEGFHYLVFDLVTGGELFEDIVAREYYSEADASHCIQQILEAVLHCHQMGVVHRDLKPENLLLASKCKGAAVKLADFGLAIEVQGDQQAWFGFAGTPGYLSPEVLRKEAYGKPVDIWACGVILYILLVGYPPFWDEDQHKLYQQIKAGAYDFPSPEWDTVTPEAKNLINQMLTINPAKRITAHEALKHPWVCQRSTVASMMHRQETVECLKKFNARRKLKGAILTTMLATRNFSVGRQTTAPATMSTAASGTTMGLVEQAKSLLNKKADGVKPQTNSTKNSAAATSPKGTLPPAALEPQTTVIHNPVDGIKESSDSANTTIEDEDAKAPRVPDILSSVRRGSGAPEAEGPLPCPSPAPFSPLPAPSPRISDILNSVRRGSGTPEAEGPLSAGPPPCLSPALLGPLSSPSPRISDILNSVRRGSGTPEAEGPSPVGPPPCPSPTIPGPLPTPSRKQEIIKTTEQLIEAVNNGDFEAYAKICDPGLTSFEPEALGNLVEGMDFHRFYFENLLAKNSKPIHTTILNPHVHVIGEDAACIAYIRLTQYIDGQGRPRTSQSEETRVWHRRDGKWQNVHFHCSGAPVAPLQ

NUAK1 = NUAK1 (Homo sapiens, UniProt O60285)
NUAK1, sequence (O60285 whole entry): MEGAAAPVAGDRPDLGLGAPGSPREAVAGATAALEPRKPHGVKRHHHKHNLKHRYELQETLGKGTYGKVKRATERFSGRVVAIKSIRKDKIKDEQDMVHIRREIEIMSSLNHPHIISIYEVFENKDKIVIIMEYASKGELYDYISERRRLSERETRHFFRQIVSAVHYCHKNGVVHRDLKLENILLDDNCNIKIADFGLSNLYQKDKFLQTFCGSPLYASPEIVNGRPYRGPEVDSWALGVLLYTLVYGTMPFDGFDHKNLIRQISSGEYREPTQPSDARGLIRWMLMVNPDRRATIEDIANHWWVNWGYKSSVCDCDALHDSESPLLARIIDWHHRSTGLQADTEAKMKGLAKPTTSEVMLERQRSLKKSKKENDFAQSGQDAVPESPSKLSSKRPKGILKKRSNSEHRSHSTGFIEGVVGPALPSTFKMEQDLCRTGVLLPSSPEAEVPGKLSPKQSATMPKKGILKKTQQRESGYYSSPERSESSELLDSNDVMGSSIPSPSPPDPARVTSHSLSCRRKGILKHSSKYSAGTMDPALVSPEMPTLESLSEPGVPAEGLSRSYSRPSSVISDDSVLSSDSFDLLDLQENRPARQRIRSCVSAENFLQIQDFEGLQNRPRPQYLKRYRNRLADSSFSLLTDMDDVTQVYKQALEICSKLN

AAK1 = AAK1 (Homo sapiens, UniProt Q2M2I8)
TAOK3 = TAOK3 (Homo sapiens, UniProt Q9H2K8)
TAOK3, sequence (Q9H2K8 whole entry): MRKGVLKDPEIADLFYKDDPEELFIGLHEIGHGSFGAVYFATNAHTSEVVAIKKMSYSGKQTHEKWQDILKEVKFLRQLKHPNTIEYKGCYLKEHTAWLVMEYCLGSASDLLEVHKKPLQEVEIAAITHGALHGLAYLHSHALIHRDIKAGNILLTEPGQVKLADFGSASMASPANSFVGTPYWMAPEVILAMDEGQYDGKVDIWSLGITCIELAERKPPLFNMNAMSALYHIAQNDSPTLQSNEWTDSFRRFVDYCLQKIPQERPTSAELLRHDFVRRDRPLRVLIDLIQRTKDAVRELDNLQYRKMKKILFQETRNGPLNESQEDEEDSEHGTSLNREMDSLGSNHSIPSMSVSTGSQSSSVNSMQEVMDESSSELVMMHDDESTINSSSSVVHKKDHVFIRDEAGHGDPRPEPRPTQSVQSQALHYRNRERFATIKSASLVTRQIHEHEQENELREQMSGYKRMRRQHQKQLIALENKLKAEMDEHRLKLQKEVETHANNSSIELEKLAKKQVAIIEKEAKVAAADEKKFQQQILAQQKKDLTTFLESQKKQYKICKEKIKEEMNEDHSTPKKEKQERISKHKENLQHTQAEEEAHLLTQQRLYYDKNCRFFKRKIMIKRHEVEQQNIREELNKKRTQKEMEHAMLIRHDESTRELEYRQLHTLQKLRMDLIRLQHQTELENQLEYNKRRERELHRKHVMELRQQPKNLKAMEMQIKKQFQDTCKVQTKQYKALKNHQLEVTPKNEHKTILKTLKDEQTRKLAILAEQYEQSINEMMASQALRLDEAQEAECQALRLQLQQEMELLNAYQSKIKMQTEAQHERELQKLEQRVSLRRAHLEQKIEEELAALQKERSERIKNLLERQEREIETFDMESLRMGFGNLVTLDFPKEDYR

CDK10 = CDK10 (Homo sapiens, UniProt Q15131)
CDK10, sequence (Q15131 whole entry): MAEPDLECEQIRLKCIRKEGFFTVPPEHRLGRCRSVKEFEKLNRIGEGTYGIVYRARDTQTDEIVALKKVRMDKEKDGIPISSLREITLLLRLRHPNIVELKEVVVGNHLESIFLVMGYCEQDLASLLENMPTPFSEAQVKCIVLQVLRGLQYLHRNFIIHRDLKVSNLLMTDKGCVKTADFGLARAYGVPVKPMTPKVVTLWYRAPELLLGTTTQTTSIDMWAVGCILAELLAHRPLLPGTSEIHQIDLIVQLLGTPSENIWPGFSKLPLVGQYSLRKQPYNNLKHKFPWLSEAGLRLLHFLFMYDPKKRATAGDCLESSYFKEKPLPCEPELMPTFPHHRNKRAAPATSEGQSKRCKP

Measured: IC50

COc1nc(N[C@H]2CC[C@H](NS(=O)(=O)CC(C)C)CC2)nc2[nH]nc(N3CCOC[C@H]3C)c12 [compound 39, N-(trans-4-((4-Methoxy-3-((R)-3-methylmorpholino)-1H-pyrazolo[3,4-d]pyrimidin-6-yl)amino)cyclohexyl)-2-methylpropane-1-sulfonamide]
≥ 20 µM: all assays above
